Patent publication US8207091B2, “Methods for improving growth and crop productivity of plants by adjusting plant hormone levels, ratios and/or co-factors” (Stoller Enterprises, Inc., priority 2004, dated 2012)

Assays:
Assay type in all cases: in vivo
radish plants [1] = assay: Effects of PGR on radish growth (soil applied); settings: soil applied at planting and weekly, PGR solution 12 oz/acre, IAA or kinetin 0.84 micrograms per square foot; for Average Leaf Length: largest leaf, 21 days after planting, ± SD of the mean; for Average Hypocotyl Length: measured 21 days after planting, ± standard deviation of the mean
Procedure: In this experiment, the effects of PGRs on radish growth were observed. A total of eighty (80) plants were used for this experiment. Twenty (20) plants were treated with water as a control. Twenty (20) plants were treated with a PGR solution corresponding to a rate of 12 oz/acre. The PGR solution is an aqueous solution including 0.015% IAA, 0.005% IBA, 0.009% cytokinin and 0.005% gibberellic acid as active ingredients. […] A small measure, 0.0084 ml of this solution, was diluted into 100 ml of water and applied to the soil of a container having a surface area of about 1 square foot to correspond to an application rate of 12 oz/acre. Twenty (20) plants were treated with an auxin solution containing indole-3-acetic acid (IAA) at a rate of 0.84 micrograms in 100 ml water per square foot of surface area of the container. Finally, twenty (20) plants were treated with the cytokinin kinetin at a rate of 0.84 micrograms in 100 ml water per square foot of surface area of the container. Treatments were applied to soil at the time of planting and repeated every week thereafter. Length of the hypocotyl and largest leaf of each plant was measured 21 days after planting. The mean hypocotyl length and leaf length was calculated. Results are tabulated in Table I and illustrated in FIGS. 3 and 4.

radish plants [2] = assay: Radish shoot height, treated twice at four day intervals; settings: IAA and kinetin equivalent to relative amounts in 6 oz/acre PGR solution; two treatments; 15 plants
Procedure: In this portion of the experiment radish plants were treated twice at four day intervals. Plants were treated first on emergence, and again four (4) days later. Measurements were taken one week after the last treatment. Treatments are equivalent to 6 oz/acre, 12 oz/acre, and 24 oz/acre of PGR solution, while the IAA and kinetin treatments are equivalent to the relative amounts in the 6 oz/acre rate of PGR solution. […] The results of these experiments are tabulated in Table II and illustrated in FIG. 5.

Tomato variety TSH04 = assay: Effects of PGRs on tomato fruit weight (greenhouse); settings: one truss per plant; 112 days after planting; PGR 6 oz/acre, IAA/kinetin 0.42 or 0.11 micrograms; soil or foliar not told apart
Procedure: In this experiment, the effects of PGRs on tomato yield were determined. Tomato variety TSH04, which is a processing tomato, was used. All plants were grown in five gallon pots in a greenhouse. Eight plants were used for each treatment. Application of the treatments was done aerially to eight plants and in the soil for eight plants to allow comparison of soil versus foliar application of the PGRs. Treatments were 6 oz/acre PGR solution. The treating solutions were prepared by diluting 0.0042 ml of concentrated solution into 100 ml water for application to the soil, or into 50 ml water for foliar application. The IAA solution was prepared by diluting 0.42 micrograms of IAA into 100 ml water for application to the soil, or into 50 ml water for foliar application. The cytokinin solution was prepared by diluting 0.42 micrograms of kinetin into 100 ml water for application to the soil, or into 50 ml water for spraying of the foliage. The solution containing both IAA and kinetin at a 1:1 ratio was prepared by diluting 0.42 micrograms of IAA and 0.42 micrograms of kinetin into 100 ml water for application to the soil, or into 50 ml water for foliar application. A solution containing both IAA and kinetin at a 4:1 ratio was prepared by diluting 0.42 micrograms of IAA and 0.11 micrograms of kinetin into 100 ml water for soil application, or into 50 ml water for foliar application. Finally, a solution containing both IAA and kinetin at a 1:4 ratio was prepared by diluting 0.11 micrograms of IAA and 0.42 micrograms of kinetin into 100 ml water for soil application, or into 50 ml water for foliar application. Water was employed as a control. Plants were kept pruned to one fruiting truss per plant and the weight of the fruit from each plant was measured when most of the fruit had ripened (112 days after planting). FIGS. 6 and 7 illustrate the increased fruit weight achieved, respectively, for total and individual fruits with each treatment.

[3] = system: National pickling cucumber; assay: Effects of PGRs on cucumber internode length, 21 days; settings: soil applied weekly, 21 days after planting; for Internode 1 length: first (bottom) internode, 6 oz/acre or 0.42 micrograms; for Internode 2 length: second (middle) internode; for Internode 3 length: third (top) internode
Procedure: In this experiment, the effect of PGRs on cucumber internode length was determined. The cucumber variety used was the National pickling cucumber distributed by NK Lawn & Garden Co. (Chattanooga, Tenn.). Eight plants were used per treatment. Treatments were applied to the soil of each five-gallon pot containing one plant per pot. Treatments were 6 oz/acre PGR solution. The final PGR solution was prepared by diluting 0.0042 ml of the concentrated solution into 100 ml water. The IAA solution was prepared by diluting 0.42 micrograms of IAA into 100 ml water. The cytokinin solution was prepared by diluting 0.42 micrograms of kinetin into 100 ml water. Finally, plants were treated with 6 oz/acre N-Large. The treating solution was prepared by diluting 0.0042 ml of the commercial solution into 100 ml water. N-Large is a formulation containing 4 percent gibberellin (GA3). Water was used as a control. Treatments were applied to the soil at the time of planting, and weekly thereafter. Twenty-one (21) days after planting, the internode length of the first (bottom), second (middle), and third (top) internodes were measured to the nearest millimeter. The average internode length for first, second, and third internodes was calculated for each treatment. Results are tabulated in Table IV and illustrated in FIG. 8.

[4] = system: National pickling cucumber; assay: Effects of PGRs on cucumber vines and fruit, 84 days; settings: for Average Branch Number / Average Internode Number / Average Vine Length: 84 days after planting; for Average Internode Length: 84 days, vine length divided by internode number; for Average Cucumber Weight: harvested 84 days after planting

| Structure (SMILES) | Average Leaf Length (radish plants [1]) | Average Hypocotyl Length (radish plants [1]) | Shoot Height Foliar Applied (radish plants [2]) | Average total fruit weight per plant (Tomato variety TSH04) | Average weight of each fruit (Tomato variety TSH04) | Internode 1 length [3] | Internode 2 length [3] | Internode 3 length [3] | Average Branch Number [4] | Average Internode Number [4] | Average Vine Length [4] | Average Internode Length [4] | Average Cucumber Weight [4] |
| --- | --- | --- | --- | --- | --- | --- | --- | --- | --- | --- | --- | --- | --- |
| c1coc(CNc2ncnc3[nH]cnc23)c1 [Cytokinin, kinetin] | 101.25 ± 4.46 mm | 46.10 ± 3.10 mm | 89.00 ± 4.55 mm | 89.08 ± 6.85 grams | 14.76 ± 2.47 grams | 106.38 ± 3.98 millimeters | 20.25 ± 3.40 millimeters | 2.13 ± 1.25 millimeters | 6.25 ± 2.27 | 30.50 ± 1.75 | 255.50 ± 5.61 mm | 8.37 ± 0.62 mm | 229.71 ± 1.33 gm |
| O=C(O)Cc1c[nH]c2ccccc12 [Auxin, indole-3-acetic acid] | 121.15 ± 5.20 mm | 51.15 ± 2.64 mm | 91.46 ± 4.20 mm | 63.79 ± 7.59 grams | 11.45 ± 1.99 grams | 115.88 ± 4.01 millimeters | 25.38 ± 3.13 millimeters | 4.50 ± 1.91 millimeters | 7.25 ± 1.86 | 30.75 ± 1.96 | 267.00 ± 5.70 mm | 8.72 ± 0.87 mm | 311.98 ± 9.17 gm |
